Data reported in paper PMC9967564, “Identification of Bioactive Peptides from a Laminaria digitata Protein Hydrolysate Using In Silico and In Vitro Methods to Identify Angiotensin-1-Converting Enzyme (ACE-1) Inhibitory Peptides” (Marine Drugs, 2023).

What was measured:
[1] = system: ACE-II; parameters: method as in PMID 24131339; conditions: negative control in studies on marine cryptides; ref [49]; read-out: IC50 for ACE-II inhibition; cited from earlier work
[2] = target: T1, ACE-1 (Homo sapiens, UniProt P12821); format: biochemical
T1 construct: purchased Cambridge BioSciences (Cambridge, UK)
T1 sequence (P12821 30-1306): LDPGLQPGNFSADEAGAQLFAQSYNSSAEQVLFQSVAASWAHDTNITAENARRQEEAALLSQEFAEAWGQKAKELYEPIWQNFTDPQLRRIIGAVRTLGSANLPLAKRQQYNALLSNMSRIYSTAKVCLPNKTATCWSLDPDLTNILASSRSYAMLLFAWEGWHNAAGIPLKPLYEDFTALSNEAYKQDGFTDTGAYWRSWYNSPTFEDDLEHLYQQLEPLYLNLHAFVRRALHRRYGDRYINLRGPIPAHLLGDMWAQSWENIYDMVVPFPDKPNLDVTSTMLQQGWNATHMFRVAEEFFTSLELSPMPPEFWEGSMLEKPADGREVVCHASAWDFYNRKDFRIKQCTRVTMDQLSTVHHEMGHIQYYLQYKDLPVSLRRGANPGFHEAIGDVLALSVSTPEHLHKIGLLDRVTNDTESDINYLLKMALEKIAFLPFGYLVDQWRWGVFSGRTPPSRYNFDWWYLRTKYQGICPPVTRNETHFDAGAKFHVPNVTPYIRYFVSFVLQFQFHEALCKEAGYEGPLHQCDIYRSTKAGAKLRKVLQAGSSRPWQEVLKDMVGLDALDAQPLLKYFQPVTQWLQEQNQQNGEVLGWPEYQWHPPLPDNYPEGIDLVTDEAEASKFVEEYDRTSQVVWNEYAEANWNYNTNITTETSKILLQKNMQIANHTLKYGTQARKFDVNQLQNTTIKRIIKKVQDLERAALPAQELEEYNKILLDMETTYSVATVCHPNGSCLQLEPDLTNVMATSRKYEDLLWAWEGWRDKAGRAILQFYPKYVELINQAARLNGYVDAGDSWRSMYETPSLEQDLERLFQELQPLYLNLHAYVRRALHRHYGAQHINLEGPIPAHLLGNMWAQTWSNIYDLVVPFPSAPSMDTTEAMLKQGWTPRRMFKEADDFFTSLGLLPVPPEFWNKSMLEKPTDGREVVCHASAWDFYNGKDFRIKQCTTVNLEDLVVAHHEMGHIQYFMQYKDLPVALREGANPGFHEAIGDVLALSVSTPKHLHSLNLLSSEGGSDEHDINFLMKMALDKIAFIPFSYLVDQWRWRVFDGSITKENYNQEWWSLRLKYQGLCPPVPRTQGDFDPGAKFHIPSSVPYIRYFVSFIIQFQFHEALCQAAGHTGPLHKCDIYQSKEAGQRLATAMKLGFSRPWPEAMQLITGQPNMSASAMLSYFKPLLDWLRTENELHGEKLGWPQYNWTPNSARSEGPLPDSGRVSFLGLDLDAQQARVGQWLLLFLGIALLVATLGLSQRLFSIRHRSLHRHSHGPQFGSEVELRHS

In the case of `CCCCc1nc(Cl)c(CO)n1Cc1ccc(-c2ccccc2-c2nn[nH]n2)cc1` [Losartan], the IC50 [1] is given as 17.1 to 146 µM.

Compound YIHNNPAKGGLF has an ACE-1 inhibition [2] of 91%.
